Tests used:
Experiment in all cases: relative viability (nuclei count vs DMSO), 5 days (fraction); higher = more cells survive
[1] = tested on: EPLC-272H
Summary of the method: (§1)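 Nuclei were stained with Hoechst during a one-step fixation (final 0.05% Triton X-100, 1% formaldehyde, 1 ug/ml Hoechst) carried out 5 days after dosing, then counted on 4× images. The cells, lung cancer lines in 1536-well plates, had been dosed by pin tool the day after seeding with one drug alone or a fixed anchor-drug dose plus five library-drug doses (not always all listed) in √10 steps. Relative viability is the nuclei count in treated wells divided by that in vehicle wells, and each value is the median of duplicate plates.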

[2] = tested on: NCI-H358
Summary of the method: as §1

[3] = tested on: NCI-H1793
Summary of the method: as §1

[4] = tested on: NCI-H647
Summary of the method: as §1

[5] = tested on: SW 1573
Summary of the method: as §1

[6] = tested on: NCI-H1734
Summary of the method: as §1

[7] = tested on: RERF-LC-KJ
Summary of the method: as §1

[8] = tested on: ABC-1
Summary of the method: as §1

[9] = tested on: UMC-11
Summary of the method: as §1

[10] = tested on: NCI-H322M
Summary of the method: as §1

[11] = tested on: NCI-H441
Summary of the method: as §1

[12] = tested on: NCI-H2347
Summary of the method: as §1

[13] = tested on: HCC-15
Summary of the method: as §1

[14] = tested on: NCI-H2009
Summary of the method: as §1

[15] = tested on: NCI-H1944
Summary of the method: as §1

[16] = tested on: LC-2-ad
Summary of the method: as §1

[17] = tested on: LK-2
Summary of the method: as §1

[18] = tested on: NCI-H838
Summary of the method: as §1

[19] = tested on: NCI-H1915
Summary of the method: as §1

[20] = tested on: NCI-H2023
Summary of the method: as §1

[21] = tested on: A-427
Summary of the method: as §1

SMILES: CCNC(=O)c1noc(-c2cc(C(C)C)c(O)cc2O)c1-c1ccc(CN2CCOCC2)cc1 [Luminespib] + CS(=O)(=O)N1CCN(Cc2cc3nc(-c4cccc5[nH]ncc45)nc(N4CCOCC4)c3s2)CC1 [Pictilisib] (partner 1 µM)
- relative viability ([1]; first compound 0.006325 µM): 0.267
- relative viability ([1]; first compound 0.02 µM): 0.254
- relative viability ([1]; first compound 0.06325 µM): 0.197
- relative viability ([1]; first compound 0.2 µM): 0.148
- relative viability ([2]; first compound 0.002 µM): 0.342
- relative viability ([2]; first compound 0.006325 µM): 0.311
- relative viability ([2]; first compound 0.02 µM): 0.222
- relative viability ([2]; first compound 0.06325 µM): 0.133
- relative viability ([2]; first compound 0.2 µM): 0.124
- relative viability ([3]; first compound 0.002 µM): 0.313
- relative viability ([3]; first compound 0.006325 µM): 0.342
- relative viability ([3]; first compound 0.02 µM): 0.12
- relative viability ([3]; first compound 0.06325 µM): 0.168
- relative viability ([3]; first compound 0.2 µM): 0.194
- relative viability ([4]; first compound 0.002 µM): 0.511
- relative viability ([4]; first compound 0.006325 µM): 0.439
- relative viability ([4]; first compound 0.02 µM): 0.249
- relative viability ([4]; first compound 0.06325 µM): 0.0858
- relative viability ([4]; first compound 0.2 µM): 0.0845
- relative viability ([5]; first compound 0.002 µM): 0.508
- relative viability ([5]; first compound 0.006325 µM): 0.619
- relative viability ([5]; first compound 0.02 µM): 0.428
- relative viability ([5]; first compound 0.06325 µM): 0.145
- relative viability ([5]; first compound 0.2 µM): 0.105
- relative viability ([6]; first compound 0.002 µM): 0.519
- relative viability ([6]; first compound 0.006325 µM): 0.43
- relative viability ([6]; first compound 0.02 µM): 0.329
- relative viability ([6]; first compound 0.06325 µM): 0.14
- relative viability ([6]; first compound 0.2 µM): 0.146
- relative viability ([7]; first compound 0.002 µM): 0.665
- relative viability ([7]; first compound 0.006325 µM): 0.636
- relative viability ([7]; first compound 0.02 µM): 0.375
- relative viability ([7]; first compound 0.06325 µM): 0.231
- relative viability ([7]; first compound 0.2 µM): 0.182
- relative viability ([8]; first compound 0.002 µM): 0.695
- relative viability ([8]; first compound 0.006325 µM): 0.693
- relative viability ([8]; first compound 0.02 µM): 0.407
- relative viability ([8]; first compound 0.06325 µM): 0.249
- relative viability ([8]; first compound 0.2 µM): 0.228
- relative viability ([9]; first compound 0.002 µM): 0.43
- relative viability ([9]; first compound 0.006325 µM): 0.764
- relative viability ([9]; first compound 0.02 µM): 0.261
- relative viability ([9]; first compound 0.06325 µM): 0.603
- relative viability ([9]; first compound 0.2 µM): 0.185
- relative viability ([10]; first compound 0.002 µM): 0.497
- relative viability ([10]; first compound 0.006325 µM): 0.525
- relative viability ([10]; first compound 0.02 µM): 0.447
- relative viability ([10]; first compound 0.06325 µM): 0.485
- relative viability ([10]; first compound 0.2 µM): 0.3
- relative viability ([11]; first compound 0.002 µM): 0.479
- relative viability ([11]; first compound 0.006325 µM): 0.513
- relative viability ([11]; first compound 0.02 µM): 0.425
- relative viability ([11]; first compound 0.06325 µM): 0.104
- relative viability ([11]; first compound 0.2 µM): 0.0836
- relative viability ([12]; first compound 0.002 µM): 0.751
- relative viability ([12]; first compound 0.006325 µM): 0.609
- relative viability ([12]; first compound 0.02 µM): 0.45
- relative viability ([12]; first compound 0.06325 µM): 0.54
- relative viability ([12]; first compound 0.2 µM): 0.4
- relative viability ([13]; first compound 0.002 µM): 0.724
- relative viability ([13]; first compound 0.006325 µM): 0.644
- relative viability ([13]; first compound 0.02 µM): 0.623
- relative viability ([13]; first compound 0.06325 µM): 0.413
- relative viability ([13]; first compound 0.2 µM): 0.157
- relative viability ([14]; first compound 0.002 µM): 0.855
- relative viability ([14]; first compound 0.006325 µM): 0.819
- relative viability ([14]; first compound 0.02 µM): 0.583
- relative viability ([14]; first compound 0.06325 µM): 0.0684
- relative viability ([14]; first compound 0.2 µM): 0.0548
- relative viability ([15]; first compound 0.002 µM): 0.337
- relative viability ([15]; first compound 0.006325 µM): 0.258
- relative viability ([15]; first compound 0.02 µM): 0.262
- relative viability ([15]; first compound 0.06325 µM): 0.28
- relative viability ([15]; first compound 0.2 µM): 0.22
- relative viability ([16]; first compound 0.002 µM): 0.526
- relative viability ([16]; first compound 0.006325 µM): 0.477
- relative viability ([16]; first compound 0.02 µM): 0.276
- relative viability ([16]; first compound 0.06325 µM): 0.11
- relative viability ([16]; first compound 0.2 µM): 0.0708
- relative viability ([17]; first compound 0.002 µM): 0.569
- relative viability ([17]; first compound 0.006325 µM): 0.548
- relative viability ([17]; first compound 0.02 µM): 0.373
- relative viability ([17]; first compound 0.06325 µM): 0.312
- relative viability ([17]; first compound 0.2 µM): 0.218
- relative viability ([18]; first compound 0.002 µM): 0.48
- relative viability ([18]; first compound 0.006325 µM): 0.441
- relative viability ([18]; first compound 0.02 µM): 0.223
- relative viability ([18]; first compound 0.06325 µM): 0.117
- relative viability ([18]; first compound 0.2 µM): 0.111
- relative viability ([19]; first compound 0.002 µM): 0.939
- relative viability ([19]; first compound 0.006325 µM): 0.729
- relative viability ([19]; first compound 0.02 µM): 0.567
- relative viability ([19]; first compound 0.06325 µM): 0.827
- relative viability ([19]; first compound 0.2 µM): 0.062
- relative viability ([20]; first compound 0.002 µM): 0.274
- relative viability ([20]; first compound 0.006325 µM): 0.243
- relative viability ([20]; first compound 0.02 µM): 0.105
- relative viability ([20]; first compound 0.06325 µM): 0.0887
- relative viability ([20]; first compound 0.2 µM): 0.0954
- relative viability ([21]; first compound 0.002 µM): 0.62
- relative viability ([21]; first compound 0.006325 µM): 0.634
- relative viability ([21]; first compound 0.02 µM): 0.441
- relative viability ([21]; first compound 0.06325 µM): 0.733
- relative viability ([21]; first compound 0.2 µM): 0.35
